Laboratory results from ChEMBL document CHEMBL5726195, “Pharmaceutically active pyrazine derivatives” (2017).

Molecular target: T1, Serine/threonine-protein kinase Chk1 (Homo sapiens, UniProt O14757)
T1 sequence (O14757 whole entry): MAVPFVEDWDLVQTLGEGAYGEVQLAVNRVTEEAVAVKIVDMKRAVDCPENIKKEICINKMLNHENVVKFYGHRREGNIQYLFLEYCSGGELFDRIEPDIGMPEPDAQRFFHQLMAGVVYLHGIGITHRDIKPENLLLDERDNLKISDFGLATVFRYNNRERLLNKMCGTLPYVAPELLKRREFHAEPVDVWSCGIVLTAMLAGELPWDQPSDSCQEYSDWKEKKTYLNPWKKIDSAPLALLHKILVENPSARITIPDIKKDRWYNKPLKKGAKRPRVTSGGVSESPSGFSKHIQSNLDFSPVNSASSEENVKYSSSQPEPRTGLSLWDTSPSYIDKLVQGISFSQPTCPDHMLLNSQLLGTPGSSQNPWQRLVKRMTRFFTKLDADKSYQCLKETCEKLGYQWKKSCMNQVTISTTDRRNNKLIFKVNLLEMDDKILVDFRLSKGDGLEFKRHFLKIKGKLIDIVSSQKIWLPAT
Experiment: Kinase Inhibition Asssay: Reaction Buffer:Base Reaction buffer: 20 mM Hepes (pH 7.5), 10 mM MgCl2, 1 mM EGTA, 0.02% Brij35, 0.02 mg/ml BSA, 0.1 mM Na3VO4, 2 mM DTT, 1% DMSORequired cofactors are added individually to each kinase reactionReaction Procedure:(i) Prepare indicated substrate in freshly prepared Base Reaction Buffer(ii) Deliver any required cofactors to the substrate solution above(iii) Deliver indicated kinase into the substrate solution and gently mix(iv) Deliver compounds in DMSO into the kinase reaction mixture(v) Deliver 33P-ATP (specific activity 0.01 μCi/μl final) into the reaction mixture to initiate the reaction.(vi) Incubate kinase reaction for 120 minutes at room temperature(vii) Reactions are spotted onto P81 ion exchange paper (Whatman #3698-915)(viii) Wash filters extensively in 0.1% phosphoric acid.(ix) Dry filters and measure counts in scintillation counterKinase Information:CHK-1 Genbank Accession # AF016582Recombinant full length construct, N-terminal GST tagged, purified from insect cells.No special measures were taken to activate this kinase.Final concentration in assay=0.5 nMSubstrate: CHKtidePeptide sequence: [[…]]Final concentration in assay=20 μM

SMILES	IC50 [nM]
COc1cc(CCNC[C@H]2CCCNC2)c(Cl)cc1NC(=O)Nc1cnc(C#N)cn1	0.06
COc1cc(CCNC[C@@H]2CCCNC2)c(Cl)cc1NC(=O)Nc1cnc(C#N)cn1	0.1
